PMC4130903 (Bioorganic & medicinal chemistry letters, 2014)
Where two headings read alike, the source gives them in different places.

Assays:
[1] = biological target: T1, NTSR1 (Homo sapiens, UniProt P30989); assay type: cell-based; details: for Emax: % of the response obtained with the NT(8–13) peptide, average ± SEM, n = 4; for NTSR1 activity (in words): Ca2+ mobilization assay
[2] = biological target: T1, NTSR1; details: Wyeth compound 1, literature value; cited from earlier work
[3] = biological target: T1, NTSR1; details: NTSR1 antagonists; cited from earlier work
[4] = biological target: T1, NTSR1; assay: Ca2+ assay in the presence and absence of antagonist 5; assay type: cell-based; details: in the presence of antagonist 5 (SR 48692); Figure S1

T1 sequence (P30989 whole entry, species assumed): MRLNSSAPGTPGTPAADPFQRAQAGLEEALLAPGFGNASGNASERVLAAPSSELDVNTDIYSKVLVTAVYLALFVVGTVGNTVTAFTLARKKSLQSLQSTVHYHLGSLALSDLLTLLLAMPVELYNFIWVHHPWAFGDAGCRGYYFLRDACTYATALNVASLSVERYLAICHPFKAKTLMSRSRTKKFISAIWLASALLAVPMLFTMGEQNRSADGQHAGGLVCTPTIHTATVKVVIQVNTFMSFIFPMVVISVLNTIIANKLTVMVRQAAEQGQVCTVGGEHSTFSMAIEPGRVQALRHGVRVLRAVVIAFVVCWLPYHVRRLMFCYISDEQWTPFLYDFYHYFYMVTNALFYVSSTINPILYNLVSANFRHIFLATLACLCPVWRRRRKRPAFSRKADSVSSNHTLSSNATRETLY

Which results are given for `CC(C)C[C@@H](NC(=O)Cn1ccc2cc(NS(=O)(=O)c3cccc4cccnc34)ccc21)C(=O)O` [Compound 1, reference compound]?
EC50 [1]: > 100 µM; Emax [2]: 17%

Which Binding affinity [3] does the source give for `COc1cccc(OC)c1-c1cc(C(=O)NC2(C(=O)O)C3CC4CC(C3)CC2C4)nn1-c1ccnc2cc(Cl)ccc12` (stereo not drawn) [Compound 5] here?
The Binding affinity was “low nanomolar range”.

Which Binding affinity [3] does the source give for `COc1cccc(OC)c1-c1cc(C(=O)NC2(C(=O)O)C3CC4CC(C3)CC2C4)nn1-c1ccc(C(=O)N(C)CCCN(C)C)cc1C(C)C` (stereo not drawn) [Compound 6] here?
The Binding affinity was “low nanomolar range”.

For `CC(C)C[C@H](NC(=O)Cn1ccc2cc(NS(=O)(=O)c3cccc4cccnc34)ccc21)C(=O)O` [Compound 7], which “NTSR1 stimulatory activity in the presence of antagonist 5” value (“NTSR1 stimulatory activity” for short) [4] is on record?
Its value is “abolished”.

What does the source list for `CC(C)C[C@H](NC(=O)Cn1ccc2cc(-c3cnc4ccccc4c3)ccc21)C(=O)O` [Compound 8]?
Emax [1]: 100%; Potency improvement compared to parent compound 1 ([1]; EC50 versus compound 1 (EC50 = 178 μM)): ~ 90 fold; NTSR1 stimulatory activity in the presence of antagonist 5 [4]: abolished

For `CC(C)C[C@H](NC(=O)Cn1ccc2ccccc21)C(=O)O` [Compound 12], which “NTSR1 stimulatory activity” value [4] is on record?
Its value is “abolished”.

What does the source list for `CC(C)C[C@H](NC(=O)Cn1ccc2cc(-c3cccc4ccccc34)ccc21)C(=O)O` [Compound 17]?
EC50 [1]: 3 µM; Emax [1]: 100%; NTSR1 stimulatory activity in the presence of antagonist 5 [4]: abolished

With `CC(C)C[C@H](NC(=O)Cn1ccc2cc(-c3cncc4ccccc34)ccc21)C(=O)O` [Compound 21] as the compound, how does the “NTSR1 stimulatory activity” value [4] read?
The value was “abolished”.

For `COC(=O)[C@H](CC(C)C)NC(=O)Cn1ccc2cc(-c3cnc4ccccc4c3)ccc21` [Compound 25], which “NTSR1 activity (in words)” value [1] is on record?
Its value is “loss of activity”.

With `CC(C)C[C@@H](CO)NC(=O)Cn1ccc2cc(-c3cnc4ccccc4c3)ccc21` [Compound 26] as the compound, how does the “NTSR1 activity (in words)” value [1] read?
Its value is “loss of activity”.

Which “NTSR1 stimulatory activity” value [4] does the source give for `CC(C)C[C@H](NC(=O)Cn1ccc2cc(-c3cnc4ccccc4c3)ccc21)c1nn[nH]n1` [Compound 27] here?
The value was “abolished”.

Which EC50 [1] does the source give for `O=C(Cn1ccc2cc(-c3cnc4ccccc4c3)ccc21)N[C@@H](Cc1ccccc1)C(=O)O` [Compound 31] here?
The EC50 was 4 µM.

For `CC(C)C[C@@H](NC(=O)Cn1ccc2cc(-c3cnc4ccccc4c3)ccc21)C(=O)O` [Compound 32], which “NTSR1 activity (in words)” value [1] is on record?
Its value is “no activity”.

With `COC(=O)[C@H](CC(C)C)NC(=O)Cn1ccc2cc(-c3cccc4ccccc34)ccc21` [Compound 34] as the compound, how does the “NTSR1 activity (in words)” value [1] read?
The value was “abolished activity”.

Which “NTSR1 stimulatory activity” value [4] does the source give for `CC(C)C[C@H](NC(=O)Cn1ccc2ccc(-c3cnc4ccccc4c3)cc21)C(=O)O` [Compound 39] here?
The value was “abolished”.

For `CC(C)C[C@H](NC(=O)Cn1ccc2ccc(-c3cccc4ccccc34)cc21)C(=O)O` [Compound 40], which “NTSR1 stimulatory activity” value [4] is on record?
Its value is “abolished”.
